For one experiment, the system named is NIH3T3 cells. The experiment can be described thus: Variation of compound/DNA ratio in the presence of DOGS, luciferase activity. The format is cell-based. The following applies: PEP/DNA w/v 0 (no peptide); DOGS charge ratio 1.8x; 0.75 μg DNA. How it is done: (§1) 1. A mixture of 10 μl composed of the following is prepared:
0.75 μg of pCMV-luc plasma DNA and a compound according to the invention in the ratio indicated, in 5% D-glucose, 150 mM NaCl buffer solution, with 10 mM HEPES (pH of the compaction solution: 7.2),
40 mM dioctadecylamidoglycylspermine (DOGS) in a charge ratio of 1.8×.
2. 4·10^5 cells from NIH3T3 lines are incubated with the above mixture at 37° C., under an atmosphere of 5% CO2 for 4 hours. The cells are then washed and recultured for 48 hours in a medium containing 10% serum (DMEM 10% SVF). The cell carpet is then lysed, 45 hours after the transfection, in 100 μl of lysis buffer (Promega), recovered and then centrifuged at 20,000 g for 5 minutes. The luciferase activity is measured on 5 μl of the supernatant, adding 25 μl of substrate (Promega). The reading is taken on an LKB luminometer, cumulating the RLUs (relative light units) over 20 seconds.

Another experiment relates to NIH 3T3 cells. As to the kind of experiment: in vitro transfer of nucleic acid into NIH 3T3 cells with DOGS (luciferase activity). The format is cell-based. The following applies: 0.25 μg compound. How it is done: as §1
0.5 μg of pCMV-luc plasma DNA, 0.25 μg of a compound according to the invention, in a buffer solution as identified,
40 mM dioctadecylamidoglycylspermine (DOGS) in charge ratios X as indicated in each of the tests. 2. 5·10^4 cells from the NIH3T3 lines are incubated with the above mixture at 37° C., under an atmosphere of 5% CO2 for 4 hours. The cells are then washed and recultured for 48 hours in a medium containing 10% serum (DMEM 10% SVF).
The cell carpet is then lysed in 50 μl of lysis buffer (Promega), recovered and then centrifuged at 20,000 g for 5 minutes.
The luciferase activity is measured on 4 μl of supernatant by adding 20 μl of substrate (Promega). The reading is taken on a LKB luminometer, cumulating the RLUs (relative light units) over 20 seconds.
3. Compaction in 150 mM NaCl, 10 mM HEPES* (* N-(2-hydroxyethyl)piperazine-N'-(2-ethanesulphonic acid) at pH 7.1
4. Compaction in 5% D-glucose, 150 mM NaCl, with 10 mM HEPES (pH of the compaction solution: 7.2)

Turning to `CCCCCCCCCCCCCCCCCCN(CCCCCCCCCCCCCCCCCC)C(=O)CNC(=O)C(CCCNCCCN)NCCCN` (stereo not shown) [DOGS, dioctadecylamidoglycylspermine], the luciferase activity in the experiment with NIH3T3 cells is listed as 2150 RLU; in the experiment with NIH 3T3 cells (Table 1, DOGS/DNA charge ratio 0.8x, compaction in 150 mM NaCl, 10 mM HEPES pH 7.1, 0.5 μg pCMV-luc) it was 32 R.L.U; in the experiment on NIH 3T3 cells (Table 1, DOGS/DNA charge ratio 1.8x, 150 mM NaCl, 10 mM HEPES pH 7.1, 0.5 μg pCMV-luc) it was 220 R.L.U; in the experiment on NIH 3T3 cells (Table 1, DOGS/DNA charge ratio 3x, 150 mM NaCl, 10 mM HEPES pH 7.1, 0.5 μg pCMV-luc) it was 5400 R.L.U; in the experiment on NIH 3T3 cells (Table 2, DOGS/DNA charge ratio 0.8x, 5% D-glucose, 150 mM NaCl, 10 mM HEPES pH 7.2, 0.5 μg DNA) it was 880 R.L.U; in the experiment with NIH 3T3 cells (Table 2, DOGS/DNA charge ratio 1.8x, 5% D-glucose, 150 mM NaCl, 10 mM HEPES pH 7.2, 0.5 μg DNA), 6600 R.L.U. Also, the luciferase activity with NIH 3T3 cells (Table 2, DOGS/DNA charge ratio 3x, 5% D-glucose, 150 mM NaCl, 10 mM HEPES pH 7.2, 0.5 μg DNA) came to 22000 R.L.U.

The record behind these values is patent US5945400A, “Nucleic acid-containing composition, preparation and use thereof” (Rhone-Poulenc Rorer SA, priority 1995, dated 1999).
